Measurements reported in ChEMBL document CHEMBL3045812, “Synthesis of fatty acid Schiff base esters as potential antimicrobial and chemotherapeutic agents” (Med Chem Res, 2013).
In brackets after ≈: the same amount, converted by molar mass. Activity calls are given as the source filed them. The rule behind the calls is not given here.

Legend:
Staphylococcus aureus [1] = experiment: Antibacterial activity against Staphylococcus aureus MTCC 96 after 24 hr by microtiter broth dilution method; format: functional
Pseudomonas aeruginosa = experiment: Antibacterial activity against Pseudomonas aeruginosa MTCC 2453 after 24 hr by microtiter broth dilution method; format: functional
Bacillus subtilis = experiment: Antibacterial activity against Bacillus subtilis MTCC 121 after 24 hr by microtiter broth dilution method; format: functional
Staphylococcus aureus [2] = experiment: Antibacterial activity against Staphylococcus aureus MLS16 MTCC 2940 after 24 hr by microtiter broth dilution method; format: functional
Candida albicans [3] = experiment: Antifungal activity against Candida albicans MTCC 1637 after 24 hr by microtiter broth dilution method; format: functional; conditions: MTCC 1637, 24 h
Candida albicans [4] = experiment: Antifungal activity against Candida albicans MTCC 227 after 24 hr by microtiter broth dilution method; format: functional; conditions: MTCC 227, 24 h
Pichia sporocuriosa = experiment: Antifungal activity against Issatchenkia hanoiensis MTCC 4755 after 24 hr by microtiter broth dilution method; format: functional
Candida albicans [5] = experiment: Antifungal activity against Candida albicans MTCC 3017 after 24 hr by microtiter broth dilution method; format: functional
Nakaseomyces glabratus [6] = experiment: Antifungal activity against Candida glabrata MTCC 3019 after 24 hr by microtiter broth dilution method; format: functional
Candida albicans [7] = experiment: Antifungal activity against Candida albicans MTCC 3958 after 24 hr by microtiter broth dilution method; format: functional; conditions: MTCC 3958, 24 h
Candida albicans [8] = experiment: Antifungal activity against Candida albicans MTCC 7315 after 24 hr by microtiter broth dilution method; format: functional; conditions: MTCC 7315, 24 h
Candida albicans [9] = experiment: Antifungal activity against Candida albicans MTCC 854 after 24 hr by microtiter broth dilution method; format: functional; conditions: MTCC 854, 24 h
[Candida] aaseri [10] = Antifungal activity against Candida aaseri MTCC 1962 after 24 hr by microtiter broth dilution method; format: functional
Candida albicans [11] = experiment: Antifungal activity against Candida albicans MTCC 3018 after 24 hr by microtiter broth dilution method; format: functional; conditions: MTCC 3018, 24 h
Candida parapsilosis [12] = experiment: Antifungal activity against Candida parapsilosis MTCC 1744 after 24 hr by microtiter broth dilution method; format: functional
Candida albicans [13] = experiment: Antifungal activity against Candida albicans MTCC 183 after 24 hr by microtiter broth dilution method; format: functional; conditions: MTCC 183, 24 h
Pichia kudriavzevii = experiment: Antifungal activity against Pichia kudriavzevii MTCC 3020 after 24 hr by microtiter broth dilution method; format: functional
Micrococcus luteus = experiment: Antibacterial activity against Micrococcus luteus MTCC 2470 at 1.4 to 300 ug/ml after 24 hr by microtiter broth dilution method; format: functional, organism-based
Escherichia coli = experiment: Antibacterial activity against Escherichia coli MTCC 739 at 1.4 to 300 ug/ml after 24 hr by microtiter broth dilution method; format: functional, organism-based
HeLa = experiment: Cytotoxicity against Homo sapiens (human) HeLa cells by tetrazolium-reduction assay; format: functional, cell-based
A549 = experiment: Cytotoxicity against Homo sapiens (human) A549 cells by tetrazolium-reduction assay; format: functional, cell-based
N2a = experiment: Cytotoxicity against Mus musculus (mouse) Neuro2a cells by tetrazolium-reduction assay; format: functional, cell-based
HepG2 = experiment: Cytotoxicity against Homo sapiens (human) HepG2 cells by tetrazolium-reduction assay; format: functional, cell-based
MCF7 = experiment: Cytotoxicity against Homo sapiens (human) MCF7 cells by tetrazolium-reduction assay; format: functional, cell-based; conditions: mcf7
Raoultella planticola = experiment: Antibacterial activity against Raoultella planticola MTCC 530 at 1.4 to 300 ug/ml after 24 hr by microtiter broth dilution method; format: functional, organism-based
MDA-MB-231 = experiment: Cytotoxicity against Homo sapiens (human) MDA-MB-231 cells by tetrazolium-reduction assay; format: functional, cell-based
Candida albicans [14] = experiment: Antifungal activity against Candida albicans MTCC 854 at 1.4 to 300 ug/ml after 24 hr by microtiter broth dilution method; format: functional, organism-based
Candida albicans [15] = experiment: Antifungal activity against Candida albicans MTCC 3958 at 1.4 to 300 ug/ml after 24 hr by microtiter broth dilution method; format: functional, organism-based
Candida albicans [16] = experiment: Antifungal activity against Candida albicans MTCC 1637 at 1.4 to 300 ug/ml after 24 hr by microtiter broth dilution method; format: functional, organism-based
Candida albicans [17] = experiment: Antifungal activity against Candida albicans MTCC 227 at 1.4 to 300 ug/ml after 24 hr by microtiter broth dilution method; format: functional, organism-based
Candida parapsilosis [18] = experiment: Antifungal activity against Candida parapsilosis MTCC 1744 at 1.4 to 300 ug/ml after 24 hr by microtiter broth dilution method; format: functional, organism-based
Candida albicans [19] = experiment: Antifungal activity against Candida albicans MTCC 3018 at 1.4 to 300 ug/ml after 24 hr by microtiter broth dilution method; format: functional, organism-based
Candida albicans [20] = experiment: Antifungal activity against Candida albicans MTCC 7315 at 1.4 to 300 ug/ml after 24 hr by microtiter broth dilution method; format: functional, organism-based
Candida albicans [21] = experiment: Antifungal activity against Candida albicans MTCC 183 at 1.4 to 300 ug/ml after 24 hr by microtiter broth dilution method; format: functional, organism-based
[Candida] aaseri [22] = Antifungal activity against Candida aaseri MTCC 1962 at 1.4 to 300 ug/ml after 24 hr by microtiter broth dilution method; format: functional, organism-based
Candida albicans [23] = experiment: Antifungal activity against Candida albicans MTCC 3017 at 1.4 to 300 ug/ml after 24 hr by microtiter broth dilution method; format: functional, organism-based
Nakaseomyces glabratus [24] = experiment: Antifungal activity against Candida glabrata MTCC 3019 at 1.4 to 300 ug/ml after 24 hr by microtiter broth dilution method; format: functional, organism-based
[25] = Yamadazyma aaseri, MTCC 1962, 24 h
[26] = Lodderomyces parapsilosis, MTCC 1744, 24 h

Structure (SMILES)	MIC (Staphylococcus aureus [1]; MTCC 96, 24 h) [µg/mL]	MIC (Pseudomonas aeruginosa; MTCC 2453, 24 h) [µg/mL]	MIC (Staphylococcus aureus [2]; MLS16 MTCC 2940, 24 h) [µg/mL]	MIC (Candida albicans [3]) [µg/mL]	MIC (Candida albicans [4]) [µg/mL]	MIC (Pichia sporocuriosa; MTCC 4755, 24 h) [µg/mL]	MIC (Candida albicans [5]; MTCC 3017, 24 h) [µg/mL]	MIC (Candida albicans [7]) [µg/mL]	MIC (Candida albicans [8]) [µg/mL]	MIC (Candida albicans [9]) [µg/mL]	MIC (Candida albicans [11]) [µg/mL]	MIC (Candida albicans [13]) [µg/mL]	Activity (Micrococcus luteus)	Activity (Escherichia coli)	Activity (HeLa)	Activity (A549)	Activity (N2a)	Activity (HepG2)	MIC (Bacillus subtilis)	Activity (Raoultella planticola)	other results
NC[C@@H]1O[C@H](O[C@H]2[C@@H](O)[C@H](O[C@@H]3[C@@H](O)[C@H](N)C[C@H](N)[C@H]3O[C@H]3O[C@H](CN)[C@@H](O)[C@H](O)[C@H]3N)O[C@@H]2CO)[C@H](N)[C@@H](O)[C@@H]1O [FRAMYCETIN]	18.8 (≈ 30.5 µM)	18.8 (≈ 30.5 µM)	18.8 (≈ 30.5 µM)																		MIC (Bacillus subtilis; MTCC 121, 24 h): 18.8 µg/mL (≈ 30.5 µM)
OC(Cn1cncn1)(Cn1cncn1)c1ccc(F)cc1F [FLUCONAZOLE]				64 (≈ 209 µM)	32 (≈ 104 µM)	64 (≈ 209 µM)	64 (≈ 209 µM)	64 (≈ 209 µM)	32 (≈ 104 µM)	32 (≈ 104 µM)	32 (≈ 104 µM)	32 (≈ 104 µM)									MIC (Nakaseomyces glabratus [6]; MTCC 3019, 24 h): 64 µg/mL (≈ 209 µM); MIC ([Candida] aaseri [10]; [25]): 64 µg/mL (≈ 209 µM); MIC (Candida parapsilosis [12]; [26]): 16 µg/mL (≈ 52.2 µM); MIC (Pichia kudriavzevii; MTCC 3020, 24 h): 128 µg/mL (≈ 418 µM)
CCCCCCCCCCCCCC(=O)Oc1ccc(/C=N/Cc2cccnc2)cc1	75 (≈ 177 µM)		75 (≈ 177 µM)	300 (≈ 710 µM)	300 (≈ 710 µM)		300 (≈ 710 µM)	300 (≈ 710 µM)	300 (≈ 710 µM)	300 (≈ 710 µM)	300 (≈ 710 µM)	300 (≈ 710 µM)	inactive	inactive	inactive	inactive	inactive	inactive	inactive	inactive	MIC (Pichia sporocuriosa): inactive; MIC (Pseudomonas aeruginosa): inactive; MIC (Nakaseomyces glabratus [6]): inactive; IC50 (MCF7): Not Active; MIC ([Candida] aaseri [10]): inactive; MIC (Candida parapsilosis [12]): inactive; IC50 (MDA-MB-231): 26.6 µM; MIC (Pichia kudriavzevii): inactive
CCCCCCCCCCCCCCCC(=O)Oc1ccc(/C=N/Cc2cccnc2)cc1													inactive	inactive	inactive	inactive	inactive	inactive	inactive	inactive	Activity (Candida albicans [14]): inactive; Activity (Candida albicans [15]): inactive; Activity (Candida albicans [16]): inactive; Activity (Candida albicans [17]): inactive; MIC (Staphylococcus aureus [1]): inactive; MIC (Pseudomonas aeruginosa): inactive; MIC (Staphylococcus aureus [2]): inactive; Activity (Candida parapsilosis [18]): inactive; Activity (Candida albicans [19]): inactive; Activity (Candida albicans [20]): inactive; Activity (Candida albicans [21]): inactive; Activity ([Candida] aaseri [22]): inactive; Activity (Candida albicans [23]): inactive; Activity (Nakaseomyces glabratus [24]): inactive
CCCCCCCCCC(=O)Oc1ccc(/C=N/Cc2cccnc2)cc1	37.5 (≈ 102 µM)	75 (≈ 205 µM)	300 (≈ 819 µM)	300 (≈ 819 µM)	300 (≈ 819 µM)	75 (≈ 205 µM)		300 (≈ 819 µM)	300 (≈ 819 µM)	300 (≈ 819 µM)	75 (≈ 205 µM)	300 (≈ 819 µM)	inactive	inactive	inactive	inactive	inactive	inactive	inactive	inactive	MIC (Candida albicans [5]): inactive; MIC (Nakaseomyces glabratus [6]; MTCC 3019, 24 h): 150 µg/mL (≈ 409 µM); MIC ([Candida] aaseri [10]; [25]): 75 µg/mL (≈ 205 µM); MIC (Candida parapsilosis [12]; [26]): 150 µg/mL (≈ 409 µM); MIC (Pichia kudriavzevii; MTCC 3020, 24 h): 150 µg/mL (≈ 409 µM)
COc1cccc2c1C(=O)c1c(O)c3c(c(O)c1C2=O)C[C@@](O)(C(=O)CO)C[C@@H]3O[C@H]1C[C@H](N)[C@H](O)[C@H](C)O1 [DOXORUBICIN]																					IC50 (MDA-MB-231): < 1 µM
